Results from US9545387B2, “Composition and kit comprising piperazine derivatives and metformin, and use thereof in the treatment of diabetes” (METABOLYS, priority 2012, dated 2017).

Experiments:
[1] = oral glucose tolerance test (OGTT) in normal Swiss mice fasting for 17 hours, additive effect with metformin; format: in vivo; conditions: compound 1 50 mg/kg per os, metformin 300 mg/kg per os
Protocol: The anti-diabetic action of the compounds in Examples 1 and 2 were determined via oral route in normal Swiss mice fasting for 17 hours. […] The animals were housed for a minimum time of one week after delivery (ordered from Charles River France) up until the day of experimentation in an animal facility at a temperature regulated at 21-22° C. and subjected to a light cycle (from 9 h to 17 h) and dark cycle (from 19 h to 7 h). They were fed a maintenance diet: water and food were provided ? ad libitum ? . The animals were treated via oral route 1 hour before oral administration of a glucose load (oral glucose tolerance test—OGTT). Glycaemia was measured at various times before and after this glucose load. This glycaemia was measured using a glucometer (Lifescan OneTouch Ultra, Lifescan, Johnson and Johnson Company) and OneTouch Ultra glycaemia test strips. In the Tables below n represents the number of mice included in the study. • 1. […] The 2 compounds were administered successively one hour before the glucose load. All the groups were composed of 5 mice (metformin alone, compound 1 alone, metformin+compound 1, control group with the carrier alone). Blood samples were taken at 0, 30, 60, 90 and 120 minutes after the glucose load.

[2] = as above; format: in vivo; conditions: metformin 300 mg/kg per os; for Glycaemia, Time −60 mn / Glycaemia, Time 30 mn / Glycaemia, Time 60 mn / Glycaemia, Time 120 mn / Glycaemia, Time 0 mn / Glycaemia, Time 90 mn: OGTT; for Glycaemia, Time −60 mn: given 1 h before glucose load, time −60 min; for Glycaemia, Time 30 mn: time 30 min; for Glycaemia, Time 60 mn: time 60 min; for Glycaemia, Time 120 mn: time 120 min; for Glycaemia, Time 0 mn: time 0 min; for Glycaemia, Time 90 mn: time 90 min
[3] = glycaemia and circulating insulin before and after a glucose load in STZ-N0a rats; format: in vivo; conditions: for Glycaemia, Time −60 mn / Insulin, Time −60 mn: time −60 min; for Glycaemia, Time 0 mn / Insulin, Time 0 mn: time 0 min; for Glycaemia, Time 30 mn / Insulin, Time 30 mn: time 30 min; for Glycaemia, Time 60 mn / Insulin, Time 60 mn: time 60 min; for Glycaemia, Time 90 mn / Insulin, Time 90 mn: time 90 min; for Glycaemia, Time 120 mn / Insulin, Time 120 mn: time 120 min
Source text: An increase in insulin secretion was noted solely when compound 2 caused an increases in the peripheral consumption of glucose by skeletal muscle (Tables 9 to 12 which give a mean of the results obtained). […] It is shown in Tables 11 and 12 that if there is no increase in muscle consumption of glucose, there is no increase in the level of circulating insulin.

[4] = tested on: liver cells of rats fasting for 48 h; test: metabolism of lactate and glutamine in liver cells of rats fasting for 48 h; format: cell-based, rat
Protocol: […] Enzymatic assay of the consumption of lactate and glutamine was performed, the production of their metabolites was also analysed. Finally the ATP cell concentration was determined.
Complete oxidation of a substrate was measured by the lowest CO2 value produced from one of its carbons. As a result, this carbon is found in greater quantity in non-volatile products (other than CO2) formed during the metabolism of this substrate.
Complete oxidation of lactate can therefore be determined by measuring the production of 13CO2 from 2-13C-lactate.
Complete oxidation of glutamine can be examined by measuring the production of 13CO2 from 3-13C-glutamine (Biochem. J., 2004, 378, 485-495).

[5] = Table 1, compound 1 50 mg/kg per os
[6] = Table 2, compound 2 50 mg/kg per os
[7] = Table 11, compound 2, title 25 mg/kg (row prints 200 mg/kg)
[8] = Table 12, compound 2, title 25 mg/kg (row prints 200 mg/kg)
[9] = 5 mM 2-13C-lactate + 0.5 mM compound 2, n = 4
[10] = 5 mM 3-13C-glutamine + 0.5 mM compound 2, n = 4
[11] = 5 mM glutamine + 2 mM compound 2, n = 6
[12] = 5 mM lactate + 0.5 mM compound 2, n = 3
[13] = 5 mM lactate + 2 mM compound 2, n = 6
[14] = Table 3, compound 3 50 mg/kg per os
[15] = Table 4, compound 4 50 mg/kg per os

## O=C(O)CCC(=O)c1ccc(OCCN2CCN(c3ccccc3F)CC2)cc1 [Compound 1]
[1]; Table 1, OGTT, time 0 min
  Glycaemia, Time 0 mn: 4.5 ± 0.3 mM/liter
[1]; Table 1, OGTT, time 90 min
  Glycaemia, Time 90 mn: 6.5 ± 0.5 mM/liter
[1]; study 1
  drop of glycaemia area under curve after glucose load: 42.5%
[2]; [5]
  Glycaemia, Time −60 mn: 5.0 ± 0.2 mM/liter
  Glycaemia, Time 30 mn: 15.2 ± 1.9 mM/liter
  Glycaemia, Time 60 mn: 10.6 ± 0.2 mM/liter
  Glycaemia, Time 120 mn: 5.3 ± 0.2 mM/liter

## O=C(O)CCC(=O)c1ccc(OCCN2CCN(c3ccccn3)CC2)cc1 [Compound 2]
[2]; [6]
  Glycaemia, Time −60 mn: 4.6 ± 0.4 mM/liter
  Glycaemia, Time 0 mn: 4.9 ± 0.2 mM/liter
  Glycaemia, Time 30 mn: 14.5 ± 1.4 mM/liter
  Glycaemia, Time 60 mn: 10.4 ± 0.5 mM/liter
  Glycaemia, Time 90 mn: 8.3 ± 1.1 mM/liter
  Glycaemia, Time 120 mn: 6.8 ± 0.6 mM/liter
[2]; study 2, compound 2 50 mg/kg per os
  drop of glycaemia area under curve after glucose load: 40.5%
[3]; Table 9, compound 2 200 mg/kg
  Glycaemia AUC: 356
  Glycaemia, Time 0 mn: 8.75 mmol/L
  Glycaemia, Time 30 mn: 12.97 mmol/L
  Glycaemia, Time 60 mn: 13.15 mmol/L
  Glycaemia, Time 90 mn: 11.37 mmol/L
  Glycaemia, Time 120 mn: 10.13 mmol/L
[3]; Table 9, compound 2 200 mg/kg, glucose load at 0 min
  Glycaemia, Time −60 mn: 4.75 mmol/L
[3]; Table 10, compound 2 200 mg/kg, circulating insulin
  Insulin, Time −60 mn: 0.47 ng/mL
[3]; Table 10, compound 2 200 mg/kg
  Insulin, Time 0 mn: 0.41 ng/mL
  Insulin, Time 30 mn: 0.70 ng/mL
  Insulin, Time 60 mn: 0.59 ng/mL
  Insulin, Time 90 mn: 0.54 ng/mL
  Insulin, Time 120 mn: 0.53 ng/mL
[3]; [7]
  Glycaemia AUC: 1048
  Glycaemia, Time 0 mn: 5.23 mmol/L
  Glycaemia, Time 30 mn: 11.15 mmol/L
  Glycaemia, Time 60 mn: 16.21 mmol/L
  Glycaemia, Time 90 mn: 14.36 mmol/L
  Glycaemia, Time 120 mn: 15.33 mmol/L
  Glycaemia, Time −60 mn: 5.12 mmol/L
[3]; [8]
  Insulin, Time 0 mn: 1.41 ng/mL
  Insulin, Time 30 mn: 1.76 ng/mL
  Insulin, Time 60 mn: 1.48 ng/mL
  Insulin, Time 90 mn: 1.61 ng/mL
  Insulin, Time 120 mn: 1.61 ng/mL
  Insulin, Time −60 mn: 1.11 ng/mL
[4]; 5 mM 2-13C-lactate + 0.5 mM compound 2
  reduction of the consumption of lactate: 10%
[4]; [9]
  13CO2 production: 5.99 ± 0.09 μmoles/flask
  ATP concentration: 188.4 ± 25.2 nanomoles per 6 precisely cut liver section
  Glucose production: 4.69 ± 0.14 μmoles/flask
[4]; [10]
  ATP concentration: 362.9 ± 53.3 (NS) nanomoles per 6 precisely cut liver sections
  Glucose production: 6.05 ± 0.30 μmoles/flask
  Production of 13CO2: 1.86 ± 0.28 μmoles/flask
[4]; 5 mM glutamine + 2 mM compound 2
  ATP concentration: 34.2 ± 7.6 nanomoles per 2 precisely cut liver sections
[4]; 5 mM glutamine + 2 mM compound 2, consumption of glutamine − (2 * glucose + pyruvate + lactate + alanine + glutamate products)
  Complete oxidation: 0.59 ± 0.35* μmoles/flask
[4]; [11]
  Consumption of substrate (—): −2.77 ± 0.15 μmoles/flask
  Glucose production: 0.78 ± 0.09 μmoles/flask
[4]; [12]
  Sum of labelling of non-volatile products from lactate metabolism, 1-13C-lactate: 1.36 ± 0.09*+ μmoles of carbon 13/flask
  Sum of labelling of non-volatile products from lactate metabolism, 2-13C-lactate: 4.94 ± 0.15 μmoles of carbon 13/flask
  Sum of labelling of non-volatile products from lactate metabolism, 3-13C-lactate: 4.06 ± 0.15*+ μmoles of carbon 13/flask
[4]; 5 mM lactate + 2 mM compound 2
  ATP concentration: 31.8 ± 8.0 nanomoles per 2 precisely cut liver sections
[4]; 5 mM lactate + 2 mM compound 2, consumption of lactate − (2 * glucose + pyruvate + alanine products)
  Complete oxidation: 0.64 ± 0.30* μmoles/flask
[4]; 5 mM lactate + 2 mM compound 2, lactate consumption minus twice glucose production
  NADH mitochondrial transport: 1.06 ± 0.33 μmoles/flask
[4]; [13]
  Consumption of substrate (—): −2.59 ± 0.34 μmoles/flask
  Glucose production: 0.76 ± 0.13 μmoles/flask

## COc1cccc(N2CCN(CCOc3ccc(C(=O)CCC(=O)O)cc3)CC2)c1 [Compound 3]
[2]; [14]
  Glycaemia, Time −60 mn: 4.4 ± 0.3 mM/liter
  Glycaemia, Time 0 mn: 5.5 ± 0.3 mM/liter
  Glycaemia, Time 30 mn: 11.3 ± 0.6 mM/liter
  Glycaemia, Time 60 mn: 9.7 ± 0.4 mM/liter
  Glycaemia, Time 90 mn: 7.4 ± 0.3 mM/liter
  Glycaemia, Time 120 mn: 7.2 ± 0.5 mM/liter
[2]; study 3, compound 3 50 mg/kg per os
  drop of glycaemia area under curve after glucose load: 54.9%

## COc1ccccc1N1CCN(CCOc2ccc(CCCCC(=O)O)cc2)CC1 [Compound 4]
[2]; [15]
  Glycaemia, Time −60 mn: 3.4 ± 0.2 mM/liter
  Glycaemia, Time 0 mn: 4.0 ± 0.3 mM/liter
  Glycaemia, Time 30 mn: 18.6 ± 3.2 mM/liter
  Glycaemia, Time 60 mn: 13.3 ± 1.5 mM/liter
  Glycaemia, Time 90 mn: 8.8 ± 1.0 mM/liter
  Glycaemia, Time 120 mn: 6.8 ± 1.0 mM/liter
[2]; study 4, compound 4 50 mg/kg per os
  drop of glycaemia area under curve after glucose load: 18.7%
